In US20090258030A1, “Materials and Methods for Improving Livestock Productivity” (priority 2006, published 2009):
Structures can show the parent of a compound that is named as a salt.

Assays:
[1] = Cysteamine used to fatten pigs (Example 8); format: in vivo; settings: 190 ppm
[2] = Effect of cysteamine compound on crossbreed sheep (Example 6); format: in vivo
[3] = Intestine villi length and histology in pigs (Example 4); format: in vivo, swine; settings: 150 g of cysteamine hydrochloride per ton of feed; 30 days
Method: 72 piglets were evenly divided into control group and Cysteamine group. The control group was treated with basal diet only, while the Cysteamine group was added with 150 g of cysteamine hydrochloride per ton of feed. The trial was lasted for 30 days.
Immediately after evisceration, tissue samples from the small intestine, large intestine, liver, and pancreas of pigs from each treatment group were collected. The collected samples were placed in properly labeled containers containing 10% buffered neutral formalin solution. The tissue samples were fixed for 78 hours before they were processed for routine histological examination using the paraffin embedding technique (well-known to the skilled artisan).
Sections approximately 5 to 6μ thick were cut from paraffin blocked tissues using Optical 820 Rotary Microtome (Scientific Instruments Division, Buffalo, N.Y.). Some sections were stained with hematoxylin and eosin (H & E), others with Alcian blue. H & E stained sections were used for the examination of the general histology of the intestinal tract while the Alcian blue stained sections were used for goblet cells identification. The stained sections were examined under various magnifications using a light microscope.
The number and length (μm) of villi in the small intestine were counted per microscopic field; the thickness of the tunica muscularis in the small and large intestine were measured using American Optical Micrometer (American Optical Company, Buffalo, N.Y.) calibrated in millimeters. The mucosal folds in the large intestine, the density of intestinal glands (crypts), the appearance of the surface epithelium were all observed. The general histology of the liver and pancreas were examined and compared between Cysteamine treated and non-Cysteamine treated groups. Goblet cell density in the Cysteamine treated and non-Cysteamine treated pigs was compared through visual examination using light microscope.

[4] = Effect of cysteamine compound on small-fat-tail sheep (Example 6); format: in vivo
Text: In the following example, the test animals were sheep (small-fat-tail sheep). In total, 40 heads of small-fat-tail sheep with the average weight of 26.5 kg were randomly divided into Control group (20) and Cysteamine group (20). The control group was fed with basal diet only, while the Cysteamine group was fed a diet that included 900 g cysteamine HCl per tonnage of diet. The standard basal diet of the farm was employed for this trial.

[5] = Effect of cysteamine hydrochloride on productivity of pregnant pig sows (Example 1); format: in vivo, swine (D×L×M hybrid swine)
Text: A total of 14 heads of pregnant pig sow (which were the offspring of Duroc×Landrace×Meishan swine, also referred to herein as D×L×M hybrid swine) (84 days of pregnant) were divided into 2 groups: Control group (6) and Cysteamine group (8). The Control group was fed with basal diet. […]

[6] = Effect of cysteamine hydrochloride on weaning piglets: growth, FCR, diarrhea (Example 2); format: in vivo, swine (D×L×M weanling piglets)
Text: Total of 100 heads of unhealthy D×L×M weanling piglets (approx. 6.78 kg) were divided into 2 groups—Control group (50 heads) & Cysteamine group (50 heads). The Control group was fed with basal diet. […]

[7] = 900 g cysteamine HCl per tonnage of diet, after 35 days
[8] = 900 g/tonnage, 35 days, 20 head
[9] = 900 g/tonnage, 35 days, vs control
[10] = feed consumed, 900 g/tonnage, 35 days, 20 head
[11] = 150 g cysteamine hydrochloride per ton feed, after 49 days, vs control
[12] = late phase pregnant sow, dosage 500 g/T, from 84 days of pregnant to weaning
[13] = 90 g of cysteamine hydrochloride per ton of feed, after 30 days, vs control
[14] = D × L × M weanling piglets, 300 ppm, 30 days
[15] = D × L × M weanling piglets, 300 ppm, 30 days, 50 head

NCCS [Cysteamine Hydrochloride, cysteamine hydrochloride]
ADG ([1]; from 68 kg to market (35 days)): 1182 g | Age ([1]; from 68 kg to market (35 days)): 187 days | Ave. backfat thickness (cm) ([1]; from 68 kg to market (35 days)): 2.1 cm | Back fat thickness (neck) (cm) ([1]; from 68 kg to market (35 days)): 3.0 cm | Back fat thickness, Hip (cm) ([1]; from 68 kg to market (35 days)): 1.4 cm | Back fat thickness, Middle part (cm) ([1]; from 68 kg to market (35 days)): 1.8 cm | Body weight after slaughtering ([1]; from 68 kg to market (35 days)): 86 kg | Body weight before slaughtering ([1]; from 68 kg to market (35 days)): 106 kg | FCR ([1]; from 68 kg to market (35 days)): 2.71 | Feed consumption ([1]; from 68 kg to market (35 days)): 103 kg | Loin eye diameter (cm) ([1]; from 68 kg to market (35 days)): 33.0 cm | ADG: Improvement ([1]; vs control): 125 g | ADG: Improvement (%) ([1]; vs control): 11.79% | Age: Improvement ([1]; vs control): -5 days | Age: Improvement (%) ([1]; vs control): −2.60% | Ave. backfat thickness: Improvement ([1]; vs control): −0.5 cm | Ave. backfat thickness: Improvement (%) ([1]; vs control): −18.42% | Back fat thickness (neck): Improvement ([1]; vs control): −0.6 cm | Back fat thickness (neck): Improvement (%) ([1]; vs control): −16.67% | Back fat thickness, Hip: Improvement ([1]; vs control): −0.2 cm | Back fat thickness, Hip: Improvement (%) ([1]; vs control): −12.50% | Back fat thickness, Middle part: Improvement ([1]; vs control): −0.6 cm | Back fat thickness, Middle part: Improvement (%) ([1]; vs control): −25.00% | Body weight after slaughtering: Improvement ([1]; vs control): 2 kg | Body weight after slaughtering: Improvement (%) ([1]; vs control): 2.38% | Body weight before slaughtering: Improvement ([1]; vs control): 2 kg | Body weight before slaughtering: Improvement (%) ([1]; vs control): 1.92% | FCR: Improvement ([1]; vs control): −0.26 | FCR: Improvement (%) ([1]; vs control): −8.80% | Feed consumption: Improvement ([1]; vs control): -4 kg | Feed consumption: Improvement (%) ([1]; vs control): −3.74% | Loin eye diameter: Improvement ([1]; vs control): 2.5 cm | Loin eye diameter: Improvement (%) ([1]; vs control): 8.20% | amount of silage necessary in raising the sheep [2, 7]: reduction | weight (ADG) vs control [2, 7]: statistically significant increase | ADG (g/head/day) ([2]; 900 g/tonnage, 35 days): 82.29 g/head/day | Final weight (kg/head) ([2]; 900 g/tonnage, 35 days): 29.59 kg/head | Weight gain (kg/head) ([2]; 900 g/tonnage, 35 days): 2.88 kg/head | Total feed consumption [2, 8]: 1001.2 kg | ADG: Improvement (%) [2, 9]: 46.2% | Silage: Improvement (%) [2, 9]: −5.14% | Weight gain: Improvement (%) [2, 9]: 46.2% | Concentrate [2, 10]: 245 kg | Hay [2, 10]: 350.0 kg | Silage [2, 10]: 406.2 kg | Villi Length, Small Intestines [3]: 2.15 ± 0.09^A | goblet cells in the small and large intestine vs non-Cysteamine-treated [3]: noticeably larger and highly distended | number and length of small intestinal villi vs non-Cysteamine treated [3]: more numerous and longer | amount of silage necessary in raising the sheep [4, 7]: reduction | weight (ADG) vs control [4, 7]: statistically significant increase | Daily weight gain (g/head/day) ([4]; 900 g/tonnage, 35 days): 95.71 g/head/day | Final weight (kg/head) ([4]; 900 g/tonnage, 35 days): 28.92 kg/head | Weight gain (kg/head) ([4]; 900 g/tonnage, 35 days): 3.350 kg/head | Total feed consumption [4, 8]: 1019.38 kg | Daily weight gain: Improvement (%) [4, 9]: 30.9% | Silage: Improvement (%) [4, 9]: −16.22% | Weight gain: Improvement (%) [4, 9]: 30.9% | Concentrate [4, 10]: 245 kg | Hay [4, 10]: 350.00 kg | Silage [4, 10]: 424.38 kg | increase in litter weight [5, 11]: 13.28% | increase in piglet born weight [5, 11]: 12.43% | increase in weaning weight [5, 11]: 8.00% | Body weight of weaned piglet (kg/head) ([5]; dosage 500 g/T, piglets weaning age 19 days): 6.21 kg/head | Birth weight per litter: Improvement ([5]; dosage 500 g/T, vs control): 2.50 kg | Birth weight per litter: Improvement (%) ([5]; dosage 500 g/T, vs control): 13.28% | Birth weight per piglet: Improvement ([5]; dosage 500 g/T, vs control): 0.23 kg/head | Birth weight per piglet: Improvement (%) ([5]; dosage 500 g/T, vs control): 12.43% | Body weight of weaned piglet: Improvement ([5]; dosage 500 g/T, vs control): 0.46 kg/head | Body weight of weaned piglet: Improvement (%) ([5]; dosage 500 g/T, vs control): 8.00% | Live piglet born rate: Improvement ([5]; dosage 500 g/T, vs control): 0.00% | Live piglet born rate: Improvement (%) ([5]; dosage 500 g/T, vs control): 0.00% | Birth weight per litter [5, 12]: 21.32 kg | Birth weight per piglet (kg/head) [5, 12]: 2.08 kg/head | Live piglet born per litter (head) [5, 12]: 10.29 head | Live piglet born rate (%) [5, 12]: 100.00% | Piglet born per litter (head) [5, 12]: 10.29 head | Total live piglet born (head) [5, 12]: 82 head | Total piglet born (head) [5, 12]: 82 head | decrease in feed conversion rate (FCR) [6, 13]: 5.56% | improvement in diarrhea condition [6, 13]: 43.24% | increase in average daily weight gain (ADG) [6, 13]: 12.83% | ADG: Improvement ([6]; 300 ppm, 30 days, vs control): +48 g/head | ADG: Improvement (%) ([6]; 300 ppm, 30 days, vs control): 12.83% | Daily feed consumption: Improvement ([6]; 300 ppm, 30 days, vs control): +44.2 g/head | Diarrhea: Improvement (%) ([6]; 300 ppm, 30 days, vs control): −43.24% | FCR: Improvement ([6]; 300 ppm, 30 days, vs control): −0.1 | FCR: Improvement (%) ([6]; 300 ppm, 30 days, vs control): −5.56% | Final Wt.: Improvement ([6]; 300 ppm, 30 days, vs control): +1.5 kg/head | Total feed consumption: Improvement ([6]; 300 ppm, 30 days, vs control): +66.3 kg | Total final weight: Improvement ([6]; 300 ppm, 30 days, vs control): +75 kg | Total weight gain: Improvement ([6]; 300 ppm, 30 days, vs control): +72.5 kg | Weight gain: Improvement ([6]; 300 ppm, 30 days, vs control): +1.45 kg/head | ADG (g/head) [6, 14]: 422 g/head | Daily feed consumption (g/head) [6, 14]: 717.4 g/head | FCR [6, 14]: 1.70 | Final Wt. (kg/head) [6, 14]: 19.46 kg/head | Weight gain (kg/head) [6, 14]: 12.66 kg/head | Total feed consumption [6, 15]: 1076.1 kg | Total final weight [6, 15]: 973 kg | Total weight gain [6, 15]: 633 kg | Diarrhea (head) ([6]; D × L × M weanling piglets, 300 ppm, 30 days, of 50 head): 21 head
